Results taken from patent US20170145472A1, “METHOD OF DETECTING HELICASE ACTIVITY” (University of Macau, priority 2015, published 2017).

Legend:
[1] = Photophysical measurement; assay type: physicochemical; conditions: for Quantum yield: reference [Ru(bpy)3][PF6]2 in degassed acetonitrile
Description: Emission spectra and lifetime measurements for complexes were performed on a PTI TimeMaster C720 Spectrometer (Nitrogen laser: pulse output 337 nm) fitted with a 380 nm filter. Error limits were estimated: λ (±1 nm); τ (±10%); φ (±10%). All solvents used for the lifetime measurements were degassed using three cycles of freeze-vac-thaw.
Luminescence quantum yields were determined using the method of Demas and Crosby [Ru(bpy)3][PF6]2 in degassed acetonitrile as a standard reference solution (Φr=0.062) and calculated according to the following equation:
Φs=Φr(Br/Bs)(ns/nr)^2(Ds/Dr) • where the subscripts s and r refer to sample and reference standard solution respectively, n is the refractive index of the solvents, D is the integrated intensity, and Φ is the luminescence quantum yield. The quantity B was calculated by B=1−10^−AL, where A is the absorbance at the excitation wavelength and L is the optical path length.

helicase = target: T1, helicase (Hepatitis C virus genotype 1a, UniProt P27958); test: Luminescence response of complexes towards helicase alone; conditions: helicase alone, no DNA
T1 construct: upon the addition of 0.8 μM HCV NS3 helicase; purchased Prospec Inc. (Ness-Ziona, Israel)
Source text: M G-quadruplex DNA over helicase, IG4/Ihelicase refers to the ratio of the lunminscent response of PS2. M G-quadruplex DNA over helicase.

HCV NS3 helicase = target: T2, HCV NS3 helicase (Hepatitis C virus genotype 1a, UniProt P27958); test: G-quadruplex-based luminescent HCV NS3 helicase activity assay; assay type: biochemical; conditions: for inhibitory activity towards HCV NS3 helicase: 10 μM inhibitor, 0.8 μM helicase
T2 construct: upon the addition of 0.8 μM HCV NS3 helicase; purchased Prospec Inc. (Ness-Ziona, Israel)
Description: The random-coil oligonucleotides ON1 (100 μM) and ON2 (100 μM) were incubated in Tris buffer (20 mM, pH 7.0). The solution was heated at a temperature of 72-98° C., in particular 95° C., for at least 30 seconds in particular 10 min, cooled to room temperature at 0.1° C./s, and further incubated at room temperature for 1 hour to ensure formation of the duplex substrate. The annealed product was stored at −20° C. before use. For assaying enzyme activity, 50 μL of Tris buffered solution (5 mM Tris-HCl, 5 mM NaCl, 1 mM MgCl2, 1 mM ATP, 0.1 mM DTT, pH 7.9) with the indicated concentrations of helicase or S1, Endo, DpnI, ExoI, EcoRI, RNase, DNase, and SSB were added to a solution containing the duplex substrate (0.25 μM). The mixture was heated to 37° C. for at least 30 minutes, e.g. 2 hours, to allow the indicated enzymes-catalyzed unwinding of the duplex substrate to take place. The duplex unwinding reaction was quenched by the addition of EDTA at a final concentration of 20 mM, and the mixture was subsequently diluted using Tris buffer (20 mM Tris, 20 mM KCl, 150 mM NH4Ac, pH 7.2) to a final volume of 500 μL. […] Emission spectra were recorded in the 500-720 nm range using an excitation wavelength of 360 nm.
For the detection of helicase activity in cell extract, 50 μL of Tris buffered solution (5 mM Tris-HCl, 5 mM NaCl, 1 mM MgCl2, 1 mM ATP, 0.1 mM DTT, pH 7.9) and the indicated concentrations of helicase were added to a solution containing the duplex substrate (0.25 μM) and cell extract. The mixture was heated to 37° C. for at least 30 minutes, e.g. 2 hours, to allow the helicase-catalyzed unwinding of the duplex substrate to take place. The duplex unwinding reaction was quenched by the addition of EDTA at a final concentration of 20 mM, and the mixture was subsequently diluted using Tris buffer (20 mM Tris, 20 mM KCl, 150 mM NH4Ac, pH 7.2) to a final volume of 500 μL. Finally, 1 μM of complex 9 was added to the mixture. Emission spectra were recorded in the 500-720 nm range using an excitation wavelength of 360 nm.

PS2.M G-quadruplex DNA = test: Luminescence response of Ir(III) complexes towards different forms of DNA; assay type: binding; conditions: complex 1 μM, DNA 5 μM; PS2.M G-quadruplex vs ds17 and CCR5-DEL
Source text: M G-quadruplex DNA (G4) over dsDNA (ds17) and ssDNA (CCRS-DEL), in particular IG4/IdsDNA refers to the ratio of the luminescent response of PS2. M G-quadruplex DNA over dsDNA (ds17); and IG4/IssDNA refers to the ratio of the luminescent response of PS2. M G-quadruplex DNA over ssDNA(CCR5-DEL).
M G-quadruplex DNA over dsDNA (ds17) and ssDNA (CCRS-DEL), in particular IG4/IdsDNA refers to the ratio of the luminescent response of PS2. M G-quadruplex DNA over dsDNA (ds17); and IG4/IssDNA refers to the ratio of the luminescent response of PS2. M G-quadruplex DNA over ssDNA(CCR5-DEL).
The G-quadruplex DNA-forming sequence (PS2. M) was annealed in Tris-HCl buffer (20 mM Tris, 100 mM KCl, pH 7.0) and were stored at −20° C. or less than −20° C. before use. Complex 1-17 (1 μM) was added to 5 μM of ssDNA, dsDNA or PS2. M G-quadruplex DNA in Tris-HCl buffer (20 mM Tris, pH 7.0).

T2 sequence (P27958 1027-1657): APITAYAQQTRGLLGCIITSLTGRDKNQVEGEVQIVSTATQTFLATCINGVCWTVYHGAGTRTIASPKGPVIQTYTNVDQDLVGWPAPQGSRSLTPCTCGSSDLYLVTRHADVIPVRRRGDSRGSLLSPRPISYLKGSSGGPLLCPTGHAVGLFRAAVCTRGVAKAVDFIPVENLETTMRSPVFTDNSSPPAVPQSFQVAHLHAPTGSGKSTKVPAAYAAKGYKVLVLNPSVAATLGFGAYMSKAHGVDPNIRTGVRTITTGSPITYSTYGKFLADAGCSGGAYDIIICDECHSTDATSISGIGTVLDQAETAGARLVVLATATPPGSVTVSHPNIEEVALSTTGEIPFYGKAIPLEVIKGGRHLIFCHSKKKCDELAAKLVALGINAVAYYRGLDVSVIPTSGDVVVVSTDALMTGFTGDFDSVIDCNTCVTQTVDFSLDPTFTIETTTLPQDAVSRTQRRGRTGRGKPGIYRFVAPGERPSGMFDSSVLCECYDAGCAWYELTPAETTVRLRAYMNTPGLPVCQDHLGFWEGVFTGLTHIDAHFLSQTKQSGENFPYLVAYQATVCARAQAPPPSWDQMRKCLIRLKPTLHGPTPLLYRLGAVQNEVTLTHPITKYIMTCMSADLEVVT
T1 sequence (P27958 1027-1657): as above

For Cc1c(C)c2cccnc2c2ncccc12.Cc1c[c-]c(-c2ccccn2)cc1.Cc1c[c-]c(-c2ccccn2)cc1.F[P-](F)(F)(F)(F)F.[Ir+3] [Complex 2], which Lifetime [1] is on record?
Its Lifetime is 0.74 μs.

And the λem [1]?
The λem was 577 nm.

And the Quantum yield [1]?
Its Quantum yield is 0.057.

And the “luminescence enhancement in the presence of helicase only” value (helicase)?
The value was “enhanced in the presence of helicase only”.

Which Lifetime [1] does the source give for Clc1cc2ccc[n+]3c2c2c1ccc[n+]2[Ir-3]312([c]3ccccc3-c3[nH]c4ccccc4[n+]31)[c]1ccccc1-c1[nH]c3ccccc3[n+]12.F[P-](F)(F)(F)(F)F [Complex 15] here?
The Lifetime was 2.71 μs.

What about the λem [1] of the same compound?
The λem was 620 nm.

And the Quantum yield [1]?
Its Quantum yield is 0.092.

Which “inhibitory activity towards HCV NS3 helicase” value (HCV NS3 helicase) does the source give for Cc1ccc(C(=O)Nc2ccc(S(=O)(=O)O)c3cc(S(=O)(=O)O)cc(S(=O)(=O)O)c23)cc1NC(=O)c1cccc(NC(=O)Nc2cccc(C(=O)Nc3cc(C(=O)Nc4ccc(S(=O)(=O)O)c5cc(S(=O)(=O)O)cc(S(=O)(=O)O)c45)ccc3C)c2)c1 [suramin, reference compound] here?
The value was “displayed inhibitory activity”.

Which Lifetime [1] does the source give for Cc1ccc2ccc3ccc(C)[n+]4c3c2[n+]1[Ir-3]412([c]3ccccc3-c3ccc4ccccc4[n+]31)[c]1ccccc1-c1ccc3ccccc3[n+]12.F[P-](F)(F)(F)(F)F [Complex 11] here?
Its Lifetime is 1.96 μs.

What about the λem [1] of the same compound?
Its λem is 570 nm.

And the Quantum yield [1]?
The Quantum yield was 0.087.

What does the source list for F[P-](F)(F)(F)(F)F.c1ccc(-c2ccc3ccc4ccc(-c5ccccc5)[n+]5c4c3[n+]2[Ir-3]523([c]4ccccc4-n4ccc[n+]42)[c]2ccccc2-n2ccc[n+]23)cc1 [Complex 1]?
Lifetime [1]: 3.29 μs; λem [1]: 629 nm; Quantum yield [1]: 0.13; luminescence enhancement in the presence of helicase only (helicase): enhanced in the presence of helicase only

With F[P-](F)(F)(F)(F)F.c1ccc(-c2cc[n+]3c(c2)-c2cc(-c4ccccc4)cc[n+]2[Ir-3]324([c]3ccccc3-c3ccc5ccccc5[n+]32)[c]2ccccc2-c2ccc3ccccc3[n+]24)cc1 [Complex 14] as the compound, how does the Lifetime [1] read?
The Lifetime was 4.586 μs.

And the λem [1]?
Its λem is 560 nm.

And the Quantum yield [1]?
Its Quantum yield is 0.15.

Which Lifetime [1] does the source give for Clc1cc2cccnc2c2ncccc12.F[P-](F)(F)(F)(F)F.[Ir+3].[c-]1ccccc1-c1ccccn1.[c-]1ccccc1-c1ccccn1 [Complex 17] here?
Its Lifetime is 2.87 μs.

What about the λem [1] of the same compound?
Its λem is 608 nm.

What about the Quantum yield [1] of the same compound?
Its Quantum yield is 0.078.

With O=C(O)c1cn(C2CC2)c2cc(N3CCNCC3)c(F)cc2c1=O [ciprofloxacin, reference compound] as the compound, how does the “decrease of luminescence signal of the system” value (HCV NS3 helicase; 10 μM of ciprofloxacin) read?
The value was “about 40%”.

What about the “luminescence signal of the system in the presence of inhibitor” value (HCV NS3 helicase; ciprofloxacin 0, 1, 2.5, 5, 10, 20 μM) of the same compound?
The value was “diminished in the presence of ciprofloxacin in a dose-dependent manner”.

With “single-stranded DNA binding protein: single-stranded DNA binding protein (SSB) purchased from New England Biolabs” as the compound, how does the “response of the complex 9+G-quadruplex DNA system to other enzymes or proteins (emission intensity)” value (HCV NS3 helicase; selectivity test, enzyme in place of helicase) read?
Its value is “relatively low emission enhancement”.

Which results are given for Clc1cc2cccnc2c2ncccc12.F[P-](F)(F)(F)(F)F.[Ir+3].[c-]1ccccc1-c1ccc2ccccc2n1.[c-]1ccccc1-c1ccc2ccccc2n1 [Complex 7]?
selectivity of luminescence response for G-quadruplex DNA over dsDNA and ssDNA (PS2.M G-quadruplex DNA): selective response for G-quadruplex DNA; Lifetime [1]: 1.34 μs; λem [1]: 571 nm; Quantum yield [1]: 0.056; luminescence enhancement in the presence of helicase only (helicase): not showing any luminescence enhancement towards helicase

For Cc1cccc2[n+]1[Ir-3]13([c]4ccccc4-2)([c]2ccccc2-c2cccc(C)[n+]21)[n+]1ccc(-c2ccccc2)c2ccc4c(-c5ccccc5)cc[n+]3c4c21.F[P-](F)(F)(F)(F)F [Complex 5], which “selectivity of luminescence response for G-quadruplex DNA over dsDNA and ssDNA” value (PS2.M G-quadruplex DNA) is on record?
The value was “non-selective for G-quadruplex DNA”.

What about the Lifetime [1] of the same compound?
The Lifetime was 1.23 μs.

What about the λem [1] of the same compound?
Its λem is 590 nm.

What about the Quantum yield [1] of the same compound?
The Quantum yield was 0.12.

Which “inhibitory activity towards HCV NS3 helicase” value (HCV NS3 helicase) does the source give for Brc1c(Br)c(Br)c2n[nH]nc2c1Br [TBBT, reference compound] here?
The value was “displayed inhibitory activity”.

Which results are given for Cc1cc(-c2ccccc2)c2ccc3c(-c4ccccc4)cc(C)[n+]4c3c2[n+]1[Ir-3]412([c]3ccccc3-c3ccc4ccccc4[n+]31)[c]1ccccc1-c1ccc3ccccc3[n+]12.F[P-](F)(F)(F)(F)F [Complex 12]?
Lifetime [1]: 1.84 μs; λem [1]: 575 nm; Quantum yield [1]: 0.063

With F[P-](F)(F)(F)(F)F.[Ir+3].[c-]1ccccc1-c1ncco1.[c-]1ccccc1-c1ncco1.c1ccc(-c2ccccn2)nc1 [Complex 6] as the compound, how does the “selectivity of luminescence response for G-quadruplex DNA over dsDNA and ssDNA” value (PS2.M G-quadruplex DNA) read?
The value was “non-selective for G-quadruplex DNA”.

And the Lifetime [1]?
Its Lifetime is 0.28 μs.

And the λem [1]?
Its λem is 580 nm.

And the Quantum yield [1]?
The Quantum yield was 0.089.

Which Lifetime [1] does the source give for Clc1cc[n+]2c3c1ccc1c(Cl)cc[n+](c13)[Ir-3]213([c]2ccccc2-c2ccc4ccccc4[n+]21)[c]1ccccc1-c1ccc2ccccc2[n+]13.F[P-](F)(F)(F)(F)F [Complex 10] here?
The Lifetime was 2.89 μs.

And the λem [1]?
The λem was 590 nm.

What about the Quantum yield [1] of the same compound?
The Quantum yield was 0.086.

With F[P-](F)(F)(F)(F)F.c1cc[c]2c(c1)-c1ccc3ccccc3[n+]1[Ir-3]213([c]2ccccc2-c2ccc4ccccc4[n+]21)[n+]1cccc2c4nccnc4c4ccc[n+]3c4c21 [Complex 13] as the compound, how does the Lifetime [1] read?
The Lifetime was 4.61 μs.

And the λem [1]?
The λem was 568 nm.

What about the Quantum yield [1] of the same compound?
The Quantum yield was 0.067.
